B1: [35S]Met-tRNAi (structured_RNA)
RNA: AGCGGGGUGGGCUAGCCUGGUAAGGCCGCGGGGCUCAUAACCCCGAGGUCCCUGGUUCAAAUCCAGGCCCCGCUACCA
modifications: 3' aminoacylated with methionine; no base modifications (in vitro transcript)

Assays:
[1] = biological target: T1, a/eIF2 β–γ dimer (Saccharolobus solfataricus, UniProt Q980A5); assay: nitrocellulose filter binding; details: 65 °C, 30 mM KCl, 50 mM HEPES pH 7.5, 0.5 mM MgCl2, 1 mM DTT; labelled compound
T1 sequence (Q980A5 1-415): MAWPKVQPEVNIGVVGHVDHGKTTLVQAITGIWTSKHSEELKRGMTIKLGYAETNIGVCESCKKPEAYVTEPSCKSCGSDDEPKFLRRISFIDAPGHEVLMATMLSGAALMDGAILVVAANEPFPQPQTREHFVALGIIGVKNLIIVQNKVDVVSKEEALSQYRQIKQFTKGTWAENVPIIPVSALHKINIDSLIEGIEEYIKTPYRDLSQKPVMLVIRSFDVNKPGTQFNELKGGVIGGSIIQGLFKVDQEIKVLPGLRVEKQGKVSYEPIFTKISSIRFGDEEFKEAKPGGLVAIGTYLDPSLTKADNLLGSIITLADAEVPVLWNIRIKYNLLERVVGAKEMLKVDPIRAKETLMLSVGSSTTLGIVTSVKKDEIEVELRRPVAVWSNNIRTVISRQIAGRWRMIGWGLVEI
T1 sequence (Q97W59 1-139 partner): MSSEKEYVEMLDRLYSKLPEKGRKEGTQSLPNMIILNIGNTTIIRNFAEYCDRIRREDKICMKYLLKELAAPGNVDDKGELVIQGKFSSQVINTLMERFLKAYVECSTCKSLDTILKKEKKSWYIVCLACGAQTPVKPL

[2] = biological target: T2, a/eIF2 α–γ dimer (Saccharolobus solfataricus, UniProt Q980A5); assay: nitrocellulose filter binding; details: 65 °C, 30 mM KCl, 50 mM HEPES pH 7.5, 0.5 mM MgCl2, 1 mM DTT; labelled compound
T2 sequence (Q980A5 1-415): T1 sequence (Q980A5 1-415)
T2 sequence (Q97Z79 1-266 partner): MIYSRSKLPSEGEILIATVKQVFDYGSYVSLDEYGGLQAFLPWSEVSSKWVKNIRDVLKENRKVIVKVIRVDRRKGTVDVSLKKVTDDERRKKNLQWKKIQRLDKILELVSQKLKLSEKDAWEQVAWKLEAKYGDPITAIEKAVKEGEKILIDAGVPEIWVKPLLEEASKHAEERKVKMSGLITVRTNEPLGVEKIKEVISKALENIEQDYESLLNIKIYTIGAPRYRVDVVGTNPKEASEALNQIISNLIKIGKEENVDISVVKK

[3] = biological target: T3, a/eIF2 alpha subunit;a/eIF2 beta subunit;a/eIF2 gamma subunit (Saccharolobus (Sulfolobus) …, UniProt Q97Z79;Q97W59;Q980A5 1-266;1-139;1-415, ||); assay: filter binding
T3 sequence 1: T2 sequence (Q97Z79 1-266 partner)
T3 sequence 2: T1 sequence (Q97W59 1-139 partner)
T3 sequence 3: T1 sequence (Q980A5 1-415)

[4] = biological target: T4, a/eIF2 alpha subunit;a/eIF2 gamma subunit (Saccharolobus (Sulfolobus) …, UniProt Q97Z79;Q980A5 1-266;1-415, |); assay: filter binding
T4 sequence 1: T2 sequence (Q97Z79 1-266 partner)
T4 sequence 2: T1 sequence (Q980A5 1-415)

| Molecule | nitrocellulose filter binding [1] | nitrocellulose filter binding [2] | binding result [3] | binding result [4] |
| --- | --- | --- | --- | --- |
| Nc1nc2c(ncn2[C@@H]2O[C@H](COP(=O)(O)OP(=O)(O)OP(=O)(O)O)[C@@H](O)[C@H]2O)c(=O)[nH]1 [GTP] | displayed GDP and GTP binding curves essentially overlapping with those obtained with the γ-subunit alone | displayed GDP and GTP binding curves essentially overlapping with those obtained with the γ-subunit alone | – | – |
| Nc1nc2c(ncn2[C@@H]2O[C@H](COP(=O)(O)OP(=O)(O)O)[C@@H](O)[C@H]2O)c(=O)[nH]1 [GDP] | displayed GDP and GTP binding curves essentially overlapping with those obtained with the γ-subunit alone | displayed GDP and GTP binding curves essentially overlapping with those obtained with the γ-subunit alone | – | – |
| B1 | – | – | binds | binds |

— article PMC1069517 (Nucleic Acids Research, 2005)
